Measurements taken from ChEMBL document CHEMBL1201862, “PubChem BioAssay data set” (2004).
Calls of active or inactive are those of the source.

Experiments:
[1] = biological target: T1, Neuropeptide Y receptor type 1 (Homo sapiens, UniProt P25929); assay: Fluorescence-based counterscreen for agonists of NPY-Y2: cell-based high-throughput dose response assay for agonists of NPY-Y1.; type: functional
T1 sequence (P25929 whole entry): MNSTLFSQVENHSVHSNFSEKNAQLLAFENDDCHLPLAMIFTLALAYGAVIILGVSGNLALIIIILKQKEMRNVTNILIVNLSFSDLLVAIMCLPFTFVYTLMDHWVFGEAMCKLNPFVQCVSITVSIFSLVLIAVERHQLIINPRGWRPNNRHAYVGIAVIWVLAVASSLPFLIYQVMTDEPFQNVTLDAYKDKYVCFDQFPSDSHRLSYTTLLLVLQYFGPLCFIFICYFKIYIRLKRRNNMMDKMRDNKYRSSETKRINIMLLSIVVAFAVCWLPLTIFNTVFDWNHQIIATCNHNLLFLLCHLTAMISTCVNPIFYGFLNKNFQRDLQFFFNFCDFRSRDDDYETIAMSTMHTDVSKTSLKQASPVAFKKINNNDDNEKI

[2] = biological target: T2, Neuropeptide Y receptor type 2 (Homo sapiens, UniProt P49146); assay: Fluorescence-based cell-based high-throughput dose response assay for agonists of NPY-Y2. [Related pubchem assays: 1703 (Screening assay (CNGC inhibitors).), 1359 (Screening assay (NPY-Y2 potentiators or agonists).), 1304 (Screening assay (NPY-Y1 potentiators or agonists).), 1710 (Screening assay (NPY-Y2 agonists).), 1791 (Summary AID.)]; type: functional
T2 sequence (P49146 whole entry): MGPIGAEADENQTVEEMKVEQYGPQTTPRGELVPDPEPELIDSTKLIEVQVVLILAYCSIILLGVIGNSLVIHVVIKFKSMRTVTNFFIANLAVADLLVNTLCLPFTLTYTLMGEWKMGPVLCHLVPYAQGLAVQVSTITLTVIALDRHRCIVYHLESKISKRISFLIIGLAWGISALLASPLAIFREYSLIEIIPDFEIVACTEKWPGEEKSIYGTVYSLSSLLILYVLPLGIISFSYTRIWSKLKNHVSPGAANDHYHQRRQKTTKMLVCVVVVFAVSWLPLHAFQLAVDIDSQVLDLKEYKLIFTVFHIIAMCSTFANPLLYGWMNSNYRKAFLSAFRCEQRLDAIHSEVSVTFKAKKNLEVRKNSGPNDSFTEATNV

[3] = system: HEK293; assay: Fluorescence-based counterscreen for potentiators or agonists of NPY-Y2: cell-based high-throughput dose response assay to identify inhibitors of cyclic nucleotide gated ion channel (CNGC) activity. In this assay, the parental HEK293 cell line transfected with a cyclic-nucleotide gated ion channel (CNGC)-based cAMP sensor is used to measure inhibition of isoproterenol-induced CNGC activity by test compound.; type: functional; conditions: Homo sapiens;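 note: stimulus is 1 µM isoproterenol at EC100 plus PDE inhibitor Ro 20-1724 at 25 µM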
[4] = biological target: T3, Induced myeloid leukemia cell differentiation protein Mcl-1 (Homo sapiens, UniProt Q07820); assay: MCL1-BIM BH3 interaction inhibitors, dose response, biochemical, fluorescence polarization, BIM-BH3 peptide, 1536-well (AID 2217)
[5] = biological target: Prothrombin (Bos taurus, UniProt P00735); assay: thrombin inhibition, dose response, biochemical, fluorescence polarization, uHTS hits (AID 602369); type: functional
[6] = biological target: Bcl-2-like protein 1 (Homo sapiens, UniProt Q07817); assay: BCL-XL inhibitors, dose response, selectivity assay for MCL1 inhibitor project, biochemical, fluorescence polarization, 1536-well (AID 2218)
[7] = Artemis endonuclease inhibitor potency, dose response, biochemical, fluorescence intensity (AID 720701); type: functional;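 note: Artemis endonuclease enzyme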
[8] = biological target: T4, Methionyl-tRNA synthetase, putative (Trypanosoma brucei brucei, UniProt Q38C91); type: functional, Trypanosoma brucei brucei strain 927/4 GUTat10.1
[9] = biological target: T5, Cysteine protease ATG4B (Homo sapiens, UniProt Q9Y4P1); type: functional;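 note: Fluorescence-based dose-response confirmation assay measuring inhibition of ATG4B activity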
T5 sequence (Q9Y4P1 whole entry): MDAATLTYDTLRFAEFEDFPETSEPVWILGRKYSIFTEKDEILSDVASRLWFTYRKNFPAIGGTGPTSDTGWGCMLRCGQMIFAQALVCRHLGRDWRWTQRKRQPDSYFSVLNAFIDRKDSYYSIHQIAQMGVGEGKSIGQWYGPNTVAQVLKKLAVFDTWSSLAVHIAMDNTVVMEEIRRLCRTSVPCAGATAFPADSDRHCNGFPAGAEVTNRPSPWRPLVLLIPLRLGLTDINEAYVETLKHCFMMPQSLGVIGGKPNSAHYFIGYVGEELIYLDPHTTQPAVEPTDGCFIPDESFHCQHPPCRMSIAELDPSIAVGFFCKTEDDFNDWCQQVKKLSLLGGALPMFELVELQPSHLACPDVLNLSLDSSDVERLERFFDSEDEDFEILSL

[10] = Counterscreen for inhibitors of Trypanosoma brucei methionyl tRNA synthetase (MetRS): Luminescence-based cell-based high throughput dose response assay to identify compounds that are cytotoxic to Jurkat human T lymphocyte cells.; type: functional
[11] = biological target: T6, Aminopeptidase N (Plasmodium falciparum FcB1/Columbia, UniProt O96935); assay: P. falciparum M1AAP inhibitors, biochemical, fluorogenic H-Leu-NHMec substrate, 1536-well (AID 1445); design: species or system Plasmodium falciparum 3D7, 3D7
T6 sequence (O96935 whole entry): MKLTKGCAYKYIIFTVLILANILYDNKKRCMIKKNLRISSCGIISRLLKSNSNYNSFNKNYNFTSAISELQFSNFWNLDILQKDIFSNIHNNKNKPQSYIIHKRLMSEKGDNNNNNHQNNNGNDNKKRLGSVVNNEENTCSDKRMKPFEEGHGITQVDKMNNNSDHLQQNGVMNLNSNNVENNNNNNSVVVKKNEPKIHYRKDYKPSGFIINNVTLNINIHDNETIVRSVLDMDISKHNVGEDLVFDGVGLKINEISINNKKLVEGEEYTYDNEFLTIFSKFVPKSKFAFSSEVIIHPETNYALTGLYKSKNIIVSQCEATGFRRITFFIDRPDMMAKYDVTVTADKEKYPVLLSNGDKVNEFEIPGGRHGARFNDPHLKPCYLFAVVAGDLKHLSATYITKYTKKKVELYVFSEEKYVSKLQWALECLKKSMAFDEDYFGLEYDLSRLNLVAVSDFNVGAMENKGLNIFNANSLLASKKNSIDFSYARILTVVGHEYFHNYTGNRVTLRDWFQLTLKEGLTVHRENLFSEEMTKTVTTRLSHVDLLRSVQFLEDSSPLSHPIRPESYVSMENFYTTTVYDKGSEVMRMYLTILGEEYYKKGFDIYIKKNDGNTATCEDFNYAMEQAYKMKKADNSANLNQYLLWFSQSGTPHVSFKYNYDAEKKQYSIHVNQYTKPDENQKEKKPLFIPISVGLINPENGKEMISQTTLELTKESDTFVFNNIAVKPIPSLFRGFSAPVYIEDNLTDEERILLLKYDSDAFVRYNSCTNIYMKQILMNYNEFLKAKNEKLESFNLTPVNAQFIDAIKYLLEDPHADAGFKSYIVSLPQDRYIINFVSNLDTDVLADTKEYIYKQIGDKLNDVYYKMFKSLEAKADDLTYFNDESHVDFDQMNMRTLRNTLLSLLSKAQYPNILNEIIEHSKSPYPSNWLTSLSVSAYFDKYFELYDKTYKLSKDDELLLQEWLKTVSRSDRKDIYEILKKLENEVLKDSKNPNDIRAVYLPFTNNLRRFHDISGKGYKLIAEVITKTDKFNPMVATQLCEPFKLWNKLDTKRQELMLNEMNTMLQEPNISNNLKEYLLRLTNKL

[12] = biological target: 72 kDa type IV collagenase (Homo sapiens, UniProt P08253); assay: Dose Response validation of uHTS RPN11 inhibitor hits using a MMP-2 Fluorescence assay.; type: functional
[13] = biological target: Large T antigen (Simian virus 40, UniProt P03070); type: functional, Betapolyomavirus macacae;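 note: Confirmatory-stage PubChem screen for compounds that inhibit SV40 T antigen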
[14] = biological target: T7, SUMO-activating enzyme (Homo sapiens, UniProt Q9UBT2); assay: inhibitors of in vitro SUMOylation cascade, primary screen, biochemical, HTRF, uHTS (AID 2006); type: protein-complex assay
[15] = biological target: Genome polyprotein (dengue virus type 2, UniProt P29990); assay: Dengue-2 NS5 methyltransferase inhibitors, primary screen, biochemical, confirmation dose response (AID 588689); type: functional
[16] = biological target: T4, Methionyl-tRNA synthetase, putative; type: functional, Trypanosoma brucei brucei strain 927/4 GUTat10.1; remark: listed apart in the source
[17] = system: Vero; assay: Vero cell cytotoxicity, cytotoxicity control for flavivirus capping enzyme inhibitors (AID 588742); type: functional; conditions: Chlorocebus sabaeus
[18] = biological target: Phospholipase A2 (Homo sapiens, UniProt P04054); type: functional;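 note: confirmatory dose-response counterscreen on phospholipase A2, testing hits that came from an ultra-high-throughput screen for ATG4B inhibitors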
[19] = biological target: T7, SUMO-activating enzyme; assay: SUMOylation inhibitor hit validation, confirmation, SUMOylation inhibitor project, biochemical, AlphaScreen (AID 2018); type: functional
[20] = HIV-1 Env-mediated cell fusion inhibitors, dose response, CCR5-tropic Env (AID 2279); type: functional
[21] = biological target: T3, Induced myeloid leukemia cell differentiation protein Mcl-1; type: functional
[22] = biological target: 26S proteasome non-ATPase regulatory subunit 14 (Homo sapiens, UniProt O00487); assay: inhibition of proteasome subunit RPN11 – biochemical, fluorescence polarization, uHTS hits, confirmation (AID 602368); type: functional
26S proteasome non-ATPase regulatory subunit 14, sequence (O00487 whole entry): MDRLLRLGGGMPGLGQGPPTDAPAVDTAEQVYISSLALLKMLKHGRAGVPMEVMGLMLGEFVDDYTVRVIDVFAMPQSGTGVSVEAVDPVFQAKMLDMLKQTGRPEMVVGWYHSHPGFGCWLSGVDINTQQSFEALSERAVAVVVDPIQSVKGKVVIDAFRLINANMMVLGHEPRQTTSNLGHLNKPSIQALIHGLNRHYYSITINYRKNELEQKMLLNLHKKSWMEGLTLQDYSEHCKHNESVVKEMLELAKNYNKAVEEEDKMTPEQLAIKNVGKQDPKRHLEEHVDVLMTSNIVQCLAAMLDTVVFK

T7 sequence (Q9UBE0 whole entry): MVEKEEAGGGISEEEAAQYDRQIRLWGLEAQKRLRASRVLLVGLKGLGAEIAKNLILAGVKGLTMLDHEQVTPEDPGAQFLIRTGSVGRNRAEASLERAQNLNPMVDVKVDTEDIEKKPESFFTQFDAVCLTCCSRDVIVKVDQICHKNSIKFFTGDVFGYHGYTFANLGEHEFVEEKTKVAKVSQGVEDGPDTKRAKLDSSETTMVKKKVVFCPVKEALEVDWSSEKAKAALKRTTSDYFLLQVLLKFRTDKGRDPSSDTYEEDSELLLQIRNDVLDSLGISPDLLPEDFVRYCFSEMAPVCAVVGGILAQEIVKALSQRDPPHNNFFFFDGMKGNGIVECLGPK
T7 sequence (Q9UBT2 whole entry): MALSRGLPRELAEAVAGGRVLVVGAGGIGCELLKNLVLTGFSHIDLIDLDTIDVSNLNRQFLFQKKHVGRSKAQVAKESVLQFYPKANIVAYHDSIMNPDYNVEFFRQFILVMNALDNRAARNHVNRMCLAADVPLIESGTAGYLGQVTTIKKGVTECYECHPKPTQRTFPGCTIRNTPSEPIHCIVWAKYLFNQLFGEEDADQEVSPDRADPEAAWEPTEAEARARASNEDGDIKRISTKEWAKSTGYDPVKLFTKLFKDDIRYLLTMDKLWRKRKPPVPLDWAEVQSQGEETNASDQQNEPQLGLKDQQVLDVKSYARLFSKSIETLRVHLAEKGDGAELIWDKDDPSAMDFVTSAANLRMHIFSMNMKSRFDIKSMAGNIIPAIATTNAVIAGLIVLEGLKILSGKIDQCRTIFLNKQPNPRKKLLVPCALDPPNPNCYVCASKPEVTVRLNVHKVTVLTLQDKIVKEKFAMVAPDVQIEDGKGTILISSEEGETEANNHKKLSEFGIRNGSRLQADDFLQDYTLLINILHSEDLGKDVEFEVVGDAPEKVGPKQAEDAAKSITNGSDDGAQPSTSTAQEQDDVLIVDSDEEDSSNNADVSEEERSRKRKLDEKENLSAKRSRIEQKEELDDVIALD
T4 sequence (Q38C91 whole entry): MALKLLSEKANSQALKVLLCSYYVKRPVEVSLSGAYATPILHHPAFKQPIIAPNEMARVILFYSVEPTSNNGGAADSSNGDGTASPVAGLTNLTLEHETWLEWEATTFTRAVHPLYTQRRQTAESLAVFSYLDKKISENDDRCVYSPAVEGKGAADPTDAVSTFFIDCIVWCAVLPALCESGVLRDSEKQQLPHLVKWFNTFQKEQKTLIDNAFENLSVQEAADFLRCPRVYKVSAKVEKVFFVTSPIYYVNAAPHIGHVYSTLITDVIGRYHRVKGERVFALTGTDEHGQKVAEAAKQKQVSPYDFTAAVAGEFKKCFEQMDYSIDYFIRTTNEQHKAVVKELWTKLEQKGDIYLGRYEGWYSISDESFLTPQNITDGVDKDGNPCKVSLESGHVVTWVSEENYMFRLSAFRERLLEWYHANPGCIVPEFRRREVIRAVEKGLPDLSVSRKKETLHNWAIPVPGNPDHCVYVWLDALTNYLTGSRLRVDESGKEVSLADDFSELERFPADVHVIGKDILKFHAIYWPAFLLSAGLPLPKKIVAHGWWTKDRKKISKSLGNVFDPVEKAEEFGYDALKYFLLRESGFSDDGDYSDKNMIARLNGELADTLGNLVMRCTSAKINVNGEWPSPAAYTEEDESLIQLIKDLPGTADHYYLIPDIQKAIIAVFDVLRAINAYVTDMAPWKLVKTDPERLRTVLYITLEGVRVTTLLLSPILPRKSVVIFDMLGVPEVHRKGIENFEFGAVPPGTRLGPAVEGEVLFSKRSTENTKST
T3 sequence (Q07820 whole entry): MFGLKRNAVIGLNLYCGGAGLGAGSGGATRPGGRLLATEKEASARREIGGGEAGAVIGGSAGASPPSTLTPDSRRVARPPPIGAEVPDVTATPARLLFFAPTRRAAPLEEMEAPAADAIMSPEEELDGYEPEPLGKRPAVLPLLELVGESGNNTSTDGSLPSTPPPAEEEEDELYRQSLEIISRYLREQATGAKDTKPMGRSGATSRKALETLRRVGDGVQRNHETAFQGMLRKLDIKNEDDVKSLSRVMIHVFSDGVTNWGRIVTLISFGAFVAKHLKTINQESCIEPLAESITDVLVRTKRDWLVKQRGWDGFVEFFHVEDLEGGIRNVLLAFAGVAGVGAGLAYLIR
Phospholipase A2, sequence (P04054 whole entry): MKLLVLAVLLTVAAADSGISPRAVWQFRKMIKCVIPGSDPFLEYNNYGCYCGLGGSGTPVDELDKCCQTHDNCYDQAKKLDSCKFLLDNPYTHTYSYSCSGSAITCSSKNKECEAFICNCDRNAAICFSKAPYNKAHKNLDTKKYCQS
Large T antigen, sequence (P03070 whole entry): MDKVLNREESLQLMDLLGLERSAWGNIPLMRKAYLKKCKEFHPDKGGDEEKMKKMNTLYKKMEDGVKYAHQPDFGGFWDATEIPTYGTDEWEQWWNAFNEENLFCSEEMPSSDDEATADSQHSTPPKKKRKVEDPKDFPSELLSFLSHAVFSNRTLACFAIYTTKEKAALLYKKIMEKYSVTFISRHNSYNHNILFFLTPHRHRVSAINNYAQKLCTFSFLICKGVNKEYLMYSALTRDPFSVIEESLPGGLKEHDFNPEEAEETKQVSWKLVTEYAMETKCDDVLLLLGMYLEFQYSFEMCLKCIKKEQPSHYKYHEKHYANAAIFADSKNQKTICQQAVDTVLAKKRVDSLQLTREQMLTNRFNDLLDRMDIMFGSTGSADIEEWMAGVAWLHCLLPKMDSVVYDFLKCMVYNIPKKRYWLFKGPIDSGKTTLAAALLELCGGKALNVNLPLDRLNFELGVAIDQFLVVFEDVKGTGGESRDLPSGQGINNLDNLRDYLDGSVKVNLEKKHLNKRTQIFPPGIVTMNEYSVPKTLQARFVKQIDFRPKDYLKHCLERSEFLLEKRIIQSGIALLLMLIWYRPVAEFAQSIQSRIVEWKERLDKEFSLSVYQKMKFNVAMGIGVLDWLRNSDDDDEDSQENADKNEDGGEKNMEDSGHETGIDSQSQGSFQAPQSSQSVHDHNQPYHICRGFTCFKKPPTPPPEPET
72 kDa type IV collagenase, sequence (P08253 whole entry): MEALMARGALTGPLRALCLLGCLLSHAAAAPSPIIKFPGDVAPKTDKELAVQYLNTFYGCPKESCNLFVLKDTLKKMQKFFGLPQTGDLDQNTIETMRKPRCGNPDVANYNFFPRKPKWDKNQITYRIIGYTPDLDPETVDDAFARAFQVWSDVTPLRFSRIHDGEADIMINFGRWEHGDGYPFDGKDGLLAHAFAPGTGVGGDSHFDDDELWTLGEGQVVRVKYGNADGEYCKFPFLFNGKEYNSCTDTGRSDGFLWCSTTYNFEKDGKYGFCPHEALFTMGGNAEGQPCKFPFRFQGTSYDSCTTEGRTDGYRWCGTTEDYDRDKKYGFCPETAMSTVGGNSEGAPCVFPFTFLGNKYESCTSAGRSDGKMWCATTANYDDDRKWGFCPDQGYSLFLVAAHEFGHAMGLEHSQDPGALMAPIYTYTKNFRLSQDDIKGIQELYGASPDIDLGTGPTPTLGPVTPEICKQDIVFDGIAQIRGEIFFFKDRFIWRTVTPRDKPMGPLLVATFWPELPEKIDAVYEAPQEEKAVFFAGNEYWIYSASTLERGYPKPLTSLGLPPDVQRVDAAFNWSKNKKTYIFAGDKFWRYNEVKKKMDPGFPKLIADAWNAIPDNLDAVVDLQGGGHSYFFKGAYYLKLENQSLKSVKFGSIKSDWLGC
Bcl-2-like protein 1, sequence (Q07817 whole entry): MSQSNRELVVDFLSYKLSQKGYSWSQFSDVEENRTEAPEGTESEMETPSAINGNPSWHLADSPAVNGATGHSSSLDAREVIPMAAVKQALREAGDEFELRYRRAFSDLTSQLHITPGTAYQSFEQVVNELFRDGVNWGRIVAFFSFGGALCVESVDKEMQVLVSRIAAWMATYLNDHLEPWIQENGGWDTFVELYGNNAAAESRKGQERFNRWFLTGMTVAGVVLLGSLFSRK

O=C1C2CC=CCC2C(=O)N1c1ccc(NCCc2ccc(O)cc2)c([N+](=O)[O-])c1 (configuration not stated)
> 35.4 µM (not active): EC50 [2]
15.3 µM (not active): EC50 [3]
26.5 µM (not active): EC50 [1]

O=C(N/N=C/c1ccc(-c2ccc(S(=O)(=O)Nc3ncccn3)cc2)o1)c1cc2ccccc2cc1O
inactive: IC50 [8] 18.6 µM | IC50 [10] 83.3 µM | IC50 [12] > 100 µM | IC50 [16] 15.8 µM | IC50 [18] 20.3 µM
> 109 µM (not active): IC50 [6]
active: IC50 [4] > 4.03 µM | IC50 [5] 75.6 µM | IC50 [7] 11.4 µM | IC50 [9] 5.98 µM | IC50 [11] 42.3 µM | IC50 [13] 52.8 µM | IC50 [14] 12.4 µM | IC50 [15] 76.5 µM | CC50 [17] 26 µM | IC50 [19] 2.21 µM | IC50 [20] 17 µM | IC50 [21] 1.63 µM | IC50 [22] 33.3 µM
